Values quoted from earlier work in patent publication US20220160670A1, “COMPOSITION COMPRISING L-CARNITINE FOR THE TREATMENT OF MALE INFERTILITY” (LABORATOIRE DES GRANIONS, priority 2017, published 2022).

Legend:
[1] = tested on: total forward motility of spermatozoa; details: treatment of 6 months; 3 g/day L-carnitine, 3 g/day L-acetylcarnitine, or 2 g/day + 1 g/day combined
[2] = tested on: number and total forward motility of spermatozoa; details: 2 g/day for 2*2 months; patients with 10 to 20 million/ml and total mobility 10% to 30% at inclusion

SMILES | effect on total forward motility of spermatozoa [1] | effect on number of spermatozoa [2] | effect on total forward motility of spermatozoa [2]
CC(=O)O[C@H](CC(=O)[O-])C[N+](C)(C)C [L-acetylcarnitine] | significantly increases |  | 
C[N+](C)(C)C[C@H](O)CC(=O)[O-] [L-carnitine] | significantly increases | increase | increase
